# Source: paper PMC7770212 (Journal of Psychopharmacology (Oxford, England), 2020)
# Tests used:
# AMPH-sensitized rats = assay: Pre-pulse inhibition; assay type: in vivo, rat; settings: HAL 0.1 mg/kg/day i.c.v. mini pump, day 7; versus AMPH-VEH
# [1] = system: striatal dopamine D2 receptors; settings: 0.5 mg/kg/day subcutaneous delivery; ref Kapur et al., 2003; cited from earlier work
# psychotic-like rats = assay: Pilot study: continuous HAL into the lateral ventricle; assay type: in vivo, rat; settings: data not shown
smiles,measurement,setting,value
"O=C(CCCN1CCC(O)(c2ccc(Cl)cc2)CC1)c1ccc(F)cc1 [HAL, Haloperidol]",PPI of the acoustic startle response,AMPH-sensitized rats,clearly improved PPI
same,striatal dopamine D2 receptor occupancy,[1],73%
same,alleviation of psychotic-like symptoms,psychotic-like rats; 0.1 mg/kg/day continuous i.c.v. versus 0.01 or 0.03 mg/kg/day,significantly more effective
same,extrapyramidal side effects,psychotic-like rats; 0.1 mg/kg/day continuous i.c.v.,without causing extrapyramidal side effects
